{"source": "PubChem BioAssay (NCI)", "assay_in_all_cases": "inhibition of tumour cell growth, NCI panel, 48 h", "key": {"OVCAR-8 ovarian": {"test_system": "OVCAR-8 ovarian"}, "SK-OV-3 ovarian": {"test_system": "SK-OV-3 ovarian"}, "A549 NSCLC": {"test_system": "A549 NSCLC"}, "RPMI-8226 leukemia": {"test_system": "RPMI-8226 leukemia"}, "M14 melanoma": {"test_system": "M14 melanoma"}, "A498 renal": {"test_system": "A498 renal"}, "SK-MEL-2 melanoma": {"test_system": "SK-MEL-2 melanoma"}, "SF-539 CNS": {"test_system": "SF-539 CNS"}, "KM12 colon": {"test_system": "KM12 colon"}, "MDA-MB-435": {"test_system": "MDA-MB-435"}, "SW-620 colon": {"test_system": "SW-620 colon"}, "UACC-257 melanoma": {"test_system": "UACC-257 melanoma"}, "OVCAR-4 ovarian": {"test_system": "OVCAR-4 ovarian"}, "CCRF-CEM leukemia": {"test_system": "CCRF-CEM leukemia"}, "SR leukemia": {"test_system": "SR leukemia"}, "DU-145 prostate": {"test_system": "DU-145 prostate"}, "TK-10 renal": {"test_system": "TK-10 renal"}, "LOX IMVI melanoma": {"test_system": "LOX IMVI melanoma"}, "SF-268 CNS": {"test_system": "SF-268 CNS"}, "HS 578T breast": {"test_system": "HS 578T breast"}, "SK-MEL-28 melanoma": {"test_system": "SK-MEL-28 melanoma"}, "MDA-MB-231 breast": {"test_system": "MDA-MB-231 breast"}, "SN12C renal": {"test_system": "SN12C renal"}, "K-562 leukemia": {"test_system": "K-562 leukemia"}, "HT29 colon": {"test_system": "HT29 colon"}, "HCT-116 colon": {"test_system": "HCT-116 colon"}, "EKVX NSCLC": {"test_system": "EKVX NSCLC"}, "RXF 393 renal": {"test_system": "RXF 393 renal"}, "BT-549 breast": {"test_system": "BT-549 breast"}}, "note": "Several values for one entry are separate records, joined by “and”; a condition that tells them apart may be missing. Identical values can stand only once.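 Growth conditions: 96-well plates. Treatment: test compound, 48 hours, 5 concentrations. Analysis: linear interpolation between bracketing concentrations; unreached endpoints set to highest concentration. Abbreviation: GI50, concentration required for 50% inhibition of growth. TGI marks complete inhibition of growth.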"}
{"smiles": "Cc1ccc(F)c(NC(=O)Nc2ccc(-c3cccc4[nH]nc(N)c34)cc2)c1", "values": [{"measurement": "GI50", "setting": "OVCAR-8 ovarian", "value": "3.25 µM and 3.08 µM"}, {"measurement": "TGI", "setting": "OVCAR-8 ovarian", "value": "18 µM and > 10 µM"}, {"measurement": "GI50", "setting": "SK-OV-3 ovarian", "value": 10.5, "unit": "µM"}, {"measurement": "TGI", "setting": "SK-OV-3 ovarian", "value": "23.5 µM and > 10 µM"}, {"measurement": "GI50", "setting": "A549 NSCLC", "value": "2.31 µM and 2.12 µM"}, {"measurement": "TGI", "setting": "A549 NSCLC", "value": "5.97 µM and 4.95 µM"}, {"measurement": "GI50", "setting": "RPMI-8226 leukemia", "value": "2.27 µM and 2.39 µM"}, {"measurement": "TGI", "setting": "RPMI-8226 leukemia", "value": "6.11 µM and 6.27 µM"}, {"measurement": "GI50", "setting": "M14 melanoma", "value": "3.63 µM and 3.58 µM"}, {"measurement": "TGI", "setting": "M14 melanoma", "value": "15.5 µM and > 10 µM"}, {"measurement": "GI50", "setting": "A498 renal", "value": "2.24 µM and 2.71 µM"}, {"measurement": "TGI", "setting": "A498 renal", "value": "7.02 µM and 9.3 µM"}, {"measurement": "GI50", "setting": "SK-MEL-2 melanoma", "value": "2.67 µM and 2.87 µM"}, {"measurement": "TGI", "setting": "SK-MEL-2 melanoma", "value": "5.89 µM and 9.2 µM"}, {"measurement": "GI50", "setting": "SF-539 CNS", "value": "1.61 µM and 1.52 µM"}, {"measurement": "TGI", "setting": "SF-539 CNS", "value": "6.67 µM and > 10 µM"}, {"measurement": "GI50", "setting": "KM12 colon", "value": "1.64 µM and 1.55 µM"}, {"measurement": "TGI", "setting": "KM12 colon", "value": "4.94 µM and 5.79 µM"}, {"measurement": "GI50", "setting": "MDA-MB-435", "value": "2.68 µM and 2.88 µM"}, {"measurement": "TGI", "setting": "MDA-MB-435", "value": "11 µM and > 10 µM"}, {"measurement": "GI50", "setting": "SW-620 colon", "value": "2.4 µM and 2.58 µM"}, {"measurement": "TGI", "setting": "SW-620 colon", "value": "6.73 µM and 9.58 µM"}, {"measurement": "GI50", "setting": "UACC-257 melanoma", "value": "4.39 µM and 5.34 µM"}, {"measurement": "TGI", "setting": "UACC-257 melanoma", "value": "16.7 µM and > 10 µM"}, {"measurement": "GI50", "setting": "OVCAR-4 ovarian", "value": "3.1 µM and 3.8 µM"}, {"measurement": "TGI", "setting": "OVCAR-4 ovarian", "value": "17.1 µM and > 10 µM"}, {"measurement": "GI50", "setting": "CCRF-CEM leukemia", "value": "2.9 µM and 3.4 µM"}, {"measurement": "TGI", "setting": "CCRF-CEM leukemia", "value": "9.29 µM and > 10 µM"}, {"measurement": "GI50", "setting": "SR leukemia", "value": "2.62 µM and 1.87 µM"}, {"measurement": "TGI", "setting": "SR leukemia", "value": "8.37 µM and 5.45 µM"}, {"measurement": "GI50", "setting": "DU-145 prostate", "value": "3.68 µM and 3.37 µM"}, {"measurement": "TGI", "setting": "DU-145 prostate", "value": "13.1 µM and > 10 µM"}, {"measurement": "GI50", "setting": "TK-10 renal", "value": "3.6 µM and 2.84 µM"}, {"measurement": "TGI", "setting": "TK-10 renal", "value": "14.6 µM and > 10 µM"}, {"measurement": "GI50", "setting": "LOX IMVI melanoma", "value": "1.8 µM and 2.03 µM"}, {"measurement": "TGI", "setting": "LOX IMVI melanoma", "value": "3.62 µM and 4.97 µM"}, {"measurement": "GI50", "setting": "SF-268 CNS", "value": "2.92 µM and 3.25 µM"}, {"measurement": "TGI", "setting": "SF-268 CNS", "value": "11.2 µM and > 10 µM"}, {"measurement": "GI50", "setting": "HS 578T breast", "value": "2.5 µM and 2.91 µM"}, {"measurement": "TGI", "setting": "HS 578T breast", "value": "12.6 µM and > 10 µM"}, {"measurement": "GI50", "setting": "SK-MEL-28 melanoma", "value": "3.94 µM and 3.85 µM"}, {"measurement": "TGI", "setting": "SK-MEL-28 melanoma", "value": "18.7 µM and > 10 µM"}, {"measurement": "GI50", "setting": "MDA-MB-231 breast", "value": "4.31 µM and 3.39 µM"}, {"measurement": "TGI", "setting": "MDA-MB-231 breast", "value": "16.4 µM and > 10 µM"}, {"measurement": "GI50", "setting": "SN12C renal", "value": "3.16 µM and 3.54 µM"}, {"measurement": "TGI", "setting": "SN12C renal", "value": "13 µM and > 10 µM"}, {"measurement": "GI50", "setting": "K-562 leukemia", "value": "3.66 µM and 2.28 µM"}, {"measurement": "TGI", "setting": "K-562 leukemia", "value": "> 57.5 µM and 9.29 µM"}, {"measurement": "GI50", "setting": "HT29 colon", "value": "2.46 µM and 2.86 µM"}, {"measurement": "TGI", "setting": "HT29 colon", "value": "6.93 µM and > 10 µM"}, {"measurement": "GI50", "setting": "HCT-116 colon", "value": "3.12 µM and 3.5 µM"}, {"measurement": "TGI", "setting": "HCT-116 colon", "value": "11.4 µM and > 10 µM"}, {"measurement": "GI50", "setting": "EKVX NSCLC", "value": "3.58 µM and 3.52 µM"}, {"measurement": "TGI", "setting": "EKVX NSCLC", "value": "16.6 µM and > 10 µM"}, {"measurement": "GI50", "setting": "RXF 393 renal", "value": "1.96 µM and 1.92 µM"}, {"measurement": "TGI", "setting": "RXF 393 renal", "value": "4.34 µM and 4.96 µM"}, {"measurement": "GI50", "setting": "BT-549 breast", "value": "2.64 µM and 3.39 µM"}, {"measurement": "TGI", "setting": "BT-549 breast", "value": "9.82 µM and > 10 µM"}]}
